Reference: patent US9115083B2 (Simpson Biotech Co., Ltd, priority 2011, dated 2015)
“And” between values parts separate entries of the source, which are not always exact repeats. Equal values may be shown once. Read-outs that look alike come from different tables or passages of the source.

How the values were obtained:
[1] = target: HCV NS3/4A protease (Hepatitis C virus genotype 1a (isolate H77) (HCV), UniProt P27958); assay: HCV protease assay (fluorimetric, FRET substrate); format: biochemical
Sequence of HCV NS3/4A protease (P27958 1027-1657): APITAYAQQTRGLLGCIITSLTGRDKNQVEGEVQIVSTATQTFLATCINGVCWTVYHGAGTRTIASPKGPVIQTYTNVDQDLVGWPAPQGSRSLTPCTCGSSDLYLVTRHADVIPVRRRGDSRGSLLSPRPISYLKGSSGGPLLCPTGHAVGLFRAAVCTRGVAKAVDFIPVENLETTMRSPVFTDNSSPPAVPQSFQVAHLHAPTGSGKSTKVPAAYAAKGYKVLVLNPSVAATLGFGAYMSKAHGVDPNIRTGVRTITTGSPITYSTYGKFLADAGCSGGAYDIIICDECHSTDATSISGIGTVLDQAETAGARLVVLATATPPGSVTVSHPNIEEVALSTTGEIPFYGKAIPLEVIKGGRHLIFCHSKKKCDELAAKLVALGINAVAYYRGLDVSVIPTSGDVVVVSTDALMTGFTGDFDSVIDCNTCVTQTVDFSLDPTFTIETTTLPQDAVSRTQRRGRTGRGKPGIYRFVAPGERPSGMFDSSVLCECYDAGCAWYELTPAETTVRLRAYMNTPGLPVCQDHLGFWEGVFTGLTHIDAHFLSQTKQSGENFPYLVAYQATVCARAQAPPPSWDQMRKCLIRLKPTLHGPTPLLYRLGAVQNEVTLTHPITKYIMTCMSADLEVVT
Sequence of HCV NS3/4A protease (P27958 1658-1711 partner): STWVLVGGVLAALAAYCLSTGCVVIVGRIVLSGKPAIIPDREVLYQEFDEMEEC
Text: The HCV protease assay herein was applied to investigate the HCV-protease inhibitory activity of the prepared compounds as described above. The method of the HCV protease assay was described in D. T. Phuong, C. M. Ma, M. Hattori and J. S. Jin: Inhibitory Effects of Antrodins A-E from Antrodia cinnamomea and Their Metabolites on Hepatitis C Virus Protease. Phytotherapy Research, 23, 582-584, 2009. Two micro liters of a compound solution (using DMSO as solvent) was placed in 384 well micro plate, then 8 μl of HCV NS3/4A protease ([…]) was added to the well containing a sample and the plate was agitated. Finally, 10 μL of freshly prepared substrate (Ac-Asp-Glu-Dap(QXL™520)-Glu-Glu-Abu-COO-Ala-Ser-Cys(5-FAMsp)-NH2) (100× dilution of a DMSO stock solution) was added with sequential rotational shaking. The reaction mixture was incubated for 30 min at 37° C. The fluorimetric analyses were performed on an automated TECAN GENios plate reader with excitation wavelength at 485 nm and emission 530 nm. Each test compound was carried out in triplicate. The HCV—PR inhibition (%) was calculated by using the following equation: % inhibition=(Fvehicle control−[…])×100/Fvehicle control (Where F is the fluorescence value of vehicle control or of sample minus the fluorescence of the substrate control).

[2] = target: dipeptidyl peptidase-IV (DPPIV) (Homo sapiens (Human), UniProt P27487); assay: dipeptidyl peptidase-IV (DPPIV) assay; format: biochemical
Sequence of dipeptidyl peptidase-IV (DPPIV) (P27487 whole entry, species assumed): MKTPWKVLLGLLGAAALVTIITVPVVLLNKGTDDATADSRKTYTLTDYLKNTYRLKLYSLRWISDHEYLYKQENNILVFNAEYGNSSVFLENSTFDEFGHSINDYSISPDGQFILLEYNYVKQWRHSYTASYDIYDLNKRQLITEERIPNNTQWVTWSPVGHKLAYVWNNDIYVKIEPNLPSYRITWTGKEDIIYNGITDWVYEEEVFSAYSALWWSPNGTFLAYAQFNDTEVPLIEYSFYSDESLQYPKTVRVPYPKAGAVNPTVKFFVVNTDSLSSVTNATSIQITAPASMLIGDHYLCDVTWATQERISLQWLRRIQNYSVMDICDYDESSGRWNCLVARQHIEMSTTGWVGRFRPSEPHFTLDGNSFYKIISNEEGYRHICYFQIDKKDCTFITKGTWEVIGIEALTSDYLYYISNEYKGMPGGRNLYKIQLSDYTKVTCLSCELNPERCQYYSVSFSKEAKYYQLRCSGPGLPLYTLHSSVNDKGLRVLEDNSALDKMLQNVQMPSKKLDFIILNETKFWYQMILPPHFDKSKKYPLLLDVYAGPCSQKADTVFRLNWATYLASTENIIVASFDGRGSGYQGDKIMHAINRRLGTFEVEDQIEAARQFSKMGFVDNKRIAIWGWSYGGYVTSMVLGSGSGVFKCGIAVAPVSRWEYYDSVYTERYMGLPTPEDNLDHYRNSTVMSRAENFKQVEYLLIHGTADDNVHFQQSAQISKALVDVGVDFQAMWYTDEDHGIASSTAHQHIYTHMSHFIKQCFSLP
Text: In addition, the dipeptidyl peptidase-IV (DPPIV) assay herein was applied to investigate the DPPIV inhibitory activity of the prepared compounds as described above. The method of the DPPIV assay was described in Lin et al., 1998. Inhibition of dipeptidyl peptidase IV by fluoroolefin-containing N-peptidyl-O-hydroxylamine peptidomimetics. Proc. Natl. Acad. Sci. USA Vol. 95, pp. 14020-14024.

[3] = target: HCV protease (Hepatitis C virus genotype 1a (isolate H77) (HCV), UniProt P27958); settings: from PCT publication No. WO 2009/094807, cited from earlier work; for IC50: read-out: anti HCV activity
Sequence of HCV protease (P27958 1027-1657): as the sequence (P27958 1027-1657) above
Sequence of HCV protease (P27958 1658-1711 partner): as the sequence (P27958 1658-1711 partner) above

[4] = target: HIV-1 protease (Human immunodeficiency virus type 1 group M subtype B (isolate HXB2) (HIV-1), UniProt P04585); assay: HIV-1 protease inhibition assay (HPLC of hydrolysis product); format: biochemical
Method: HIV was a retrovirus with a single-stranded RNA genome. HIV protease was an important enzyme for replication. Translated proteins in the host cell were out into the desired shape by the enzyme. The substance was a protein dimer consisting of 99 amino acids, and the active center was Asp residues.
In this assay, oligopeptide (His-Lys-Ala-Arg-Val-Leu-Phe(NO2)-Glu-Ala-NLe-Ser-NH2) with strengthened absorbance was prepared as a substrate, in which para site of […] was modified by nitro. The substrate was incubated in the presence of HIV-1 protease and the test samples. Generation ratio of hydrolysis product (Phe (NO2)-Glu-Ala-NLe-Ser-NH2) was analyzed by HPLC, and the HIV-1 inhibitory activity in test sample was detected (Y. Wei, C. M. Ma, D. Y. Chen and M. Hattori: Anti-HIV-1 Protease Triterpenoids from Stauntonia Obovatifoloala Hayata Subsp. Phytochemistry, 69, 1875-1879, 2008). In this assay, pepsatatin A was used as a positive control.

[5] = system: Propionicbacterium acnes and lipopolysaccharide treated mice; settings: cited from earlier work
[6] = target: NS3/4A HCV protease (Hepatitis C virus genotype 1a (isolate H77) (HCV), UniProt P27958); assay: NS3/4A HCV protease inhibition assay; format: biochemical; settings: read-out: NS3/4A HCV protease inhibitive activity IC50
Sequence of NS3/4A HCV protease (P27958 1027-1657): as the sequence (P27958 1027-1657) above
Sequence of NS3/4A HCV protease (P27958 1658-1711 partner): as the sequence (P27958 1658-1711 partner) above
Method: When sensitive cells were infected with HCV virus, some precursor proteins were translated from uncoated virus RNA in the cytoplasm. According to the protease, the precursor proteins were processed into different viral proteins. Among viral proteins, NS3, a serine protease and RNA helicase, was an important non-structural protein involved in virus protein maturation and virus genome replication.
In this assay, protein (FRET) was prepared and modified with fluorescent protein 5-FAM as a substrate and QXL™520 as a quencher. The substrate was incubated with NS3/4A HCV protease and testing samples, and the fluorescence intensity was measured, according to the mechanism shown in FIG. 7 (C. M. Ma, Yo Wei, Z. G. Wang and M. Hattori: Triterpenes from Cynomorium Songaricium-analysis of HCV Protease Inhibitory Activity, Quantification and Content Change Under the Influence of Heating. J. Nat. Med., 63, 9-14, 2009). In this assay, HCV NS3 Protease Inhibitor 2 was used as positive control.

[7] = Table 10, first scaffold, read-out: IC50 against DPPIV (converted)
[8] = Table 10, second scaffold, read-out: IC50 against DPPIV (converted)
[9] = read-out: HIV-1 protease inhibitive activity IC50
[10] = HCV NS3/4A protease, 30 min at 37° C., triplicate, read-out: IC50 against HCV protease

CC(C)=CCOc1ccc(C2=C(CC(C)C)C(=O)N(C(Cc3ccccc3)C(=O)O)C2=O)cc1 (centres unmarked) [Compound A2, 2-(3-Isobutyl-4-(4-(3-methylbut-2-enyloxy)phenyl)-2,5-dioxo-2,5-dihydro-1H-pyrrol-1-yl)-3-phenylpropanoic acid]
IC50 [1]: 14 µM
IC50 [2, 7]: 75.8 µM

CC(C)CC1C(=O)N(C(CC(C)C)C(=O)N2CCC[C@H]2C(=O)O)C(=O)C1c1ccc(O)cc1 (some centres unmarked) [Compound A1-9]
IC50 [2, 8]: 29 µM

CC(C)=CCOc1ccc(C2=C(CC(C)C)C(=O)OC2=O)cc1 [Compound 1, 3-isobutyl-4-[4-(3-methyl-2-butenyloxy)phenyl]furan-2,5-dione]
IC50 [3]: 2.86 µM
IC50 [4]: > 300 µM
IC50 [2, 7]: 79.5 µM

CC(C)CC1C(=O)N(C(Cc2ccccc2)C(=O)N2CCC[C@H]2C(=O)O)C(=O)C1c1ccc(O)cc1 (some centres unmarked) [Compound A2-14]
IC50 [2, 8]: 60 µM

CC(C)=CCOc1ccc(C2=C(CC(C)C)C(=O)NC2=O)cc1 [Compound 2, 3-isobutyl-4-[4-(3-methyl-2-butenyloxy)phenyl]-1H-pyrrol-2,5-dione]
anti HCV activity (in words) [3]: low activity
IC50 [4]: 54 µM
IC50 [2, 7]: 160 µM

CC(C)=CCOc1ccc(C2=C(CC(C)C)C(=O)N(C(CO)C(=O)O)C2=O)cc1 (centres unmarked) [Compound A3, 3-Hydroxy-2-(3-isobutyl-4-(4-(3-methylbut-2-enyloxy)phenyl)-2,5-dioxo-2,5-dihydro-1H-pyrrol-1-yl)propanoic acid]
IC50 [1]: 27 µM
IC50 [2, 7]: 99.6 µM

CC(C)CC1C(=O)N(C(CO)C(=O)O)C(=O)C1c1ccc(O)cc1 (centres unmarked) [Compound A3-t]
IC50 [2, 8]: 70 µM

CC(C)CC1C(=O)N(C(CO)C(=O)N2CCC[C@H]2C(=O)O)C(=O)C1c1ccc(O)cc1 (some centres unmarked) [Compound A3-15]
IC50 [2, 8]: 85 µM

CC(C)=CCOc1ccc([C@@H]2C(=O)N(O)C(=O)[C@@H]2CC(C)C)cc1 (relative stereo) [Compound 5, (3R*,4R*)-1-hydroxy-3-isobutyl-4-[4-(3-methyl-2-butenyloxy)phenyl]pyrrolidine-2,5-dione]
IC50 [4, 9]: 198 µM

CC(C)=CCOc1ccc(C2=C(CC(C)C)C(=O)N(C(CC(C)C)C(=O)O)C2=O)cc1 (centres unmarked) [Compound A1, 2-(3-Isobutyl-4-(4-(3-methylbut-2-enyloxy)phenyl)-2,5-dioxo-2,5-dihydro-1H-pyrrol-1-yl)-4-methylpentanoic acid]
IC50 [1]: 8.6 µM
IC50 [2, 7]: 105 µM

CC(C)=CCOc1ccc(C2=C(CC(C)C)C(=O)N(O)C2=O)cc1 [Compound 3, 3-isobutyl-4-[4-(3-methyl-2-butenyloxy)phenyl]-1H-pyrrol-1-ol-2,5-dione]
IC50 [3]: 8.8 µM
protective activity in treated mice [5]: protective activity
IC50 [4]: 6.5 µM
IC50 [2, 7]: 115 µM

CC(C)=CCOc1ccc(C2C(=O)N(O)C(=O)/C2=C\C(C)C)cc1 (centres unmarked) [Compound of formula (XIII)]
IC50 [4, 9]: 16.6 µM
IC50 [6]: 8.7 µM

CC(C)CC1C(=O)N(C(Cc2ccccc2)C(=O)O)C(=O)C1c1ccc(O)cc1 (centres unmarked) [Compound A2-t]
IC50 [2, 8]: 90 µM

CC(C)CC1C(=O)N(C(CC(C)C)C(=O)O)C(=O)C1c1ccc(O)cc1 (centres unmarked) [Compound A1-t]
IC50 [2, 8]: 75 µM

CC(C)CC1C(=O)N(CC(=O)C(N)=O)C(=O)C1c1ccc(O)cc1 (centres unmarked) [KAnh-2]
IC50 [1, 10]: 146 µM

CC(C)CC1C(=O)N(CC(O)C(=O)O)C(=O)C1c1ccc(O)cc1 (centres unmarked) [KA-t]
IC50 [1, 10]: 185 µM

CC(C)=CCOc1ccc(C2=C(CC(C)C)C(=O)N(C(C(=O)C(=O)NC(Cc3ccccc3)C(=O)OC(C)(C)C)c3ccccc3)C2=O)cc1 (centres unmarked) [KC-5-2]
IC50 [1, 10]: 51.6 µM

COC(=O)C(NC(=O)C(CC(C)C)N1C(=O)C(CC(C)C)=C(c2ccc(OCC=C(C)C)cc2)C1=O)C(C)C (centres unmarked) [Compound A1-1, Methyl 2-(2-(3-isobutyl-4-(4-(3-methylbut-2-enyloxy)phenyl)-2,5-dioxo-2,5-dihydro-1H-pyrrol-1-yl)-4-methylpentanamido)-3-methyl-butanoate]
IC50 [1, 10]: > 100 µM

CC(C)=CCOc1ccc([C@H]2C(=O)N(O)C(=O)[C@@H]2CC(C)C)cc1 (relative stereo) [Compound 4, (3R*,4S*)-1-hydroxy-3-isobutyl-4-[4-(3-methyl-2-butenyloxy)phenyl]pyrrolidine-2,5-dione]
IC50 [4, 9]: 4.4 µM

CC(C)=CCOc1ccc(C2=C(CC(C)C)C(=O)N(C(C(=O)C(=O)NC(C)C(=O)OC(C)(C)C)c3ccccc3)C2=O)cc1 (centres unmarked) [KC-4-2]
IC50 [1, 10]: 18.3 µM

COC(=O)[C@@H]1CCCN1C(=O)C(CC(C)C)N1C(=O)C(CC(C)C)=C(c2ccc(OCC=C(C)C)cc2)C1=O (some centres unmarked) [Compound A1-5]
IC50 ([2]; IC50 against DPPIV, Table 10, first scaffold): > 186 µM and 65 µM
